The record followed here is patent US6900223B2, “Dihydrodipyrazolopyridinone inhibitors of B7-1” (Wyeth, priority 2002, dated 2005).

The structures appear in SMILES notation.

The target in this experiment is T1, B7-1/CD28 binding (Homo sapiens, UniProt P33681).
T1 sequence (P33681 35-242 limits assumed): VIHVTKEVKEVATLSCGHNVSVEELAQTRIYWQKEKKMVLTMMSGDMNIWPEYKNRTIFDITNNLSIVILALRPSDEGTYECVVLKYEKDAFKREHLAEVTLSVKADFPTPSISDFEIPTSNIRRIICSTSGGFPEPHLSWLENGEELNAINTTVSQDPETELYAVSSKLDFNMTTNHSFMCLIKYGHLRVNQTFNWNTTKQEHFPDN
The experiment in a line: CD28/B7-1 ELISA (B7-1/CD28 binding inhibition). To be noted: CD28-Fc coated wells, B7-1-Fc-biotin/streptavidin-alkaline phosphatase detection complex, 1% DMSO. The procedure:
Evaluation of B7-1/CD28 Binding Inhibition for Test Compounds
Wells are coated with 300 ng CD28-Fc in carbonate buffer (pH 9.4) overnight at 4° C., blocked with 1% bovine serum albumin in tris-buffered saline (TBS) for 1 h at 22° C. and washed 3 times in TBS prior to assay. The detection complex is formed as follows: B7-1-Fc-biotin, prepared using NHS-LC-biotin (Pierce #21335) according to the manufacturers instructions (4.1 moles biotin/mole Fc), is added at 0.8 ug/ml to streptavidin-alkaline phosphatase (Caltag Sa1008 at 1:1000 in TBS. Gradient dilutions of test compound in dimethylsulfoxide (1% final) are added to this complex and incubated 30 min. at 22° C. Detection complex (+/−inhibitors) is then added to the CD28 coated wells for 25 min. at 22° C., washed 5 times with TBS, developed with the calorimetric substrate pNPP (Pierce #34045) in diethanolamine/MgCl2 buffer (pH 9.5) and read at 405 nm. The inhibition constant (IC50) is calculated by subtracting background binding and comparing to uninhibited (DMSO alone) controls. The inhibition constant represents the concentration of test compound required to achieve 50% inhibition.
(In general: ELISA stands for enzyme-linked immunosorbent assay.)
In general, IC50 refers to the concentration that inhibits the measured activity by half. High values mean lower potency, low ones higher potency. For `Cn1ncc2c3[nH]n(-c4cccc(F)c4)c(=O)c3c(-c3cncc(Br)c3)nc21` [Example 4, 4-(5-Bromo-3-pyridinyl)-2-(3-fluorophenyl)-6-methyl-1,6-dihydrodipyrazalo[3,4-b:3,4-d]pyridin-3(2H)-one], the half-maximal inhibitory concentration (IC50) came out at 20 nM. Next, `Cn1ncc2c3[nH]n(-c4ccc(Cl)cc4)c(=O)c3c(-c3ccccc3)nc21` [Example 6]: 1800 nM; `O=c1c2c(-c3cccc(C(F)(F)F)c3)nc3c(cnn3-c3ccccc3)c2[nH]n1-c1cccc(F)c1` [Example 7]: 750 nM; `Cn1ncc2c3[nH]n(-c4ccc(F)cc4)c(=O)c3c(-c3cncc(Br)c3)nc21` [Example 8]: 200 nM. Next, `Cn1ncc2c3[nH]n(-c4ccccn4)c(=O)c3c(-c3cncc(Br)c3)nc21` [Example 9]: 400 nM; `Cc1cccc(-c2nc3c(cnn3C)c3[nH]n(-c4ccccn4)c(=O)c23)c1` [Example 10]: 150 nM; `Cc1cc(-n2[nH]c3c(c(-c4cccc(Br)c4)nc4c3cnn4C)c2=O)cc(C(F)(F)F)c1` [Example 12]: 190 nM.

`Cn1ncc2c3[nH]n(-c4ccccn4)c(=O)c3c(-c3cccc(Br)c3)nc21` [Example 13] came in with a concentration for half-maximal inhibition (IC50) of 70 nM. Next, `Cn1ncc2c3[nH]n(-c4ccc(I)cc4)c(=O)c3c(-c3cccc(C(F)(F)F)c3)nc21` [Example 16]: 50 nM.

In turn, `Cc1cc(C)cc(-n2[nH]c3c(c(-c4cccc(Br)c4)nc4c3cnn4C)c2=O)c1` [Example 17] yielded an IC50 of 58 nM. Next, `Cn1ncc2c3[nH]n(-c4ccc([N+](=O)[O-])cc4)c(=O)c3c(-c3cccc(Br)c3)nc21` [Example 18]: 12 nM; `Cc1cccc(-c2nc3c(cnn3C)c3[nH]n(-c4cc(C)cc(C)c4)c(=O)c23)c1` [Example 19]: 990 nM. Turning to `Cc1cc(C)cc(-n2[nH]c3c(c(-c4cccc(C(F)(F)F)c4)nc4c3cnn4C)c2=O)c1` [Example 20], the IC50 turned out to be 66 nM. Against the preceding compound, the IC50 is about 15-fold lower.

For `Cn1ncc2c3[nH]n(-c4cccc(C(=O)O)c4)c(=O)c3c(-c3cccc(C(F)(F)F)c3)nc21` [Example 21], the IC50 turned out to be 48 nM. Next, `COC(=O)c1cccc(-n2[nH]c3c(c(-c4cccc(C(F)(F)F)c4)nc4c3cnn4C)c2=O)c1` [Example 22]: 8 nM.

Regarding `CCOc1ccc(-n2[nH]c3c(c(-c4cccc(C(F)(F)F)c4)nc4c3cnn4C)c2=O)nn1` [Example 23], the IC50 was 290 nM. Next, `Cn1ncc2c3[nH]n(-c4ccc(=O)[nH]n4)c(=O)c3c(-c3cccc(C(F)(F)F)c3)nc21` [Example 24]: 72 nM; `Cn1ncc2c3[nH]n(-c4ccc(Cl)c(C(=O)O)c4)c(=O)c3c(-c3cccc(C(F)(F)F)c3)nc21` [Example 25]: 7 nM; `COC(=O)c1cc(-n2[nH]c3c(c(-c4cccc(C(F)(F)F)c4)nc4c3cnn4C)c2=O)ccc1Cl` [Example 26]: 120 nM. For `CCOC(=O)c1cccc(-n2[nH]c3c(c(-c4cccc(C(F)(F)F)c4)nc4c3cnn4C)c2=O)c1` [Example 28], the 50% inhibitory concentration (IC50) came to 170 nM.

For `COC(=O)c1ccc(-n2[nH]c3c(c(-c4cccc(C(F)(F)F)c4)nc4c3cnn4C)c2=O)cc1Cl` [Example 29], the IC50 turned out to be 41 nM. This IC50 is about 4.1-fold lower than that of the compound before. Then `Cn1ncc2c3[nH]n(-c4ccc(C(=O)O)c(Cl)c4)c(=O)c3c(-c3cccc(C(F)(F)F)c3)nc21` [Example 30], with 16 nM. As for `COC(=O)c1ccc(-n2[nH]c3c(c(-c4cccc(Br)c4)nc4c3cnn4C)c2=O)cc1Cl` [Example 31], the IC50 was 9 nM. Next, `Cn1ncc2c3[nH]n(-c4ccc(C(=O)O)c(Cl)c4)c(=O)c3c(-c3cccc(Br)c3)nc21` [Example 32]: 9 nM; `Cn1ncc2c3[nH]n(-c4ccc(C(=O)O)cc4)c(=O)c3c(-c3cccc(C(F)(F)F)c3)nc21` [Example 33]: 190 nM. Next, `COC(=O)c1ccc(-n2[nH]c3c(c(-c4cccc(C(F)(F)F)c4)nc4c3cnn4C)c2=O)cc1` [Example 34]: 31 nM. Then `COC(=O)c1cc(-n2[nH]c3c(c(-c4cccc(C(F)(F)F)c4)nc4c3cnn4C)c2=O)ccc1F` [Example 35], with 98 nM; and `Cn1ncc2c3[nH]n(-c4ccc(F)c(C(=O)O)c4)c(=O)c3c(-c3cccc(C(F)(F)F)c3)nc21` [Example 36], with 70 nM.

Regarding `COC(=O)c1ccc(-n2[nH]c3c(c(-c4cccc(C(F)(F)F)c4)nc4c3cnn4C)c2=O)cc1F` [Example 37], the half-inhibitory concentration (IC50) stood at 12 nM. Next, `Cn1ncc2c3[nH]n(-c4ccc(C(=O)O)c(F)c4)c(=O)c3c(-c3cccc(C(F)(F)F)c3)nc21` [Example 38]: 210 nM; `Cn1ncc2c3[nH]n(-c4ccc(F)cc4)c(=O)c3c(-c3cccc(C(F)(F)F)c3)nc21` [Example 39]: 50 nM; `Cn1ncc2c3[nH]n(-c4ccc([N+](=O)[O-])cc4)c(=O)c3c(-c3cccc(C(F)(F)F)c3)nc21` [Example 40]: 100 nM. Next, `Cn1ncc2c3[nH]n(-c4ccccc4F)c(=O)c3c(-c3cccc(C(F)(F)F)c3)nc21` [Example 41]: 400 nM. Then `Cn1ncc2c3[nH]n(-c4ccc(C(C)(C)C)cc4)c(=O)c3c(-c3cccc(C(F)(F)F)c3)nc21` [Example 42], with 900 nM; and `Cn1ncc2c3[nH]n(-c4cccc(F)c4)c(=O)c3c(-c3cccc(C(F)(F)F)c3)nc21` [Example 43], with 20 nM; and `Cn1ncc2c3[nH]n(-c4ccc(F)cc4F)c(=O)c3c(-c3cccc(C(F)(F)F)c3)nc21` [Example 44], with 1000 nM. For the compound `Cn1ncc2c3[nH]n(-c4nccc(C(F)(F)F)n4)c(=O)c3c(-c3cccc(C(F)(F)F)c3)nc21` [Example 45], the 50% inhibitory concentration (IC50) amounted to 1200 nM. Then `Cn1ncc2c3[nH]n(-c4ccc(F)cc4)c(=O)c3c(-c3cccc([N+](=O)[O-])c3)nc21` [Example 46], with 50 nM. Next, `Cn1ncc2c3[nH]n(-c4ccc(F)cc4)c(=O)c3c(-c3cccc(N)c3)nc21` [Example 47]: 400 nM; `Cn1ncc2c3[nH]n(-c4ccc(N)cc4)c(=O)c3c(-c3cccc(C(F)(F)F)c3)nc21` [Example 48]: 50 nM. Then `Cn1ncc2c3[nH]n(-c4cccc(F)c4)c(=O)c3c(-c3cccc([N+](=O)[O-])c3)nc21` [Example 50], with 4 nM; and `CCOC(=O)c1scc(C)c1-n1[nH]c2c(c(-c3cccc(C(F)(F)F)c3)nc3c2cnn3C)c1=O` [Example 51], with 2100 nM. On to `Cc1csc(C(=O)O)c1-n1[nH]c2c(c(-c3cccc(C(F)(F)F)c3)nc3c2cnn3C)c1=O` [Example 52], for which the IC50 was 1700 nM. Then `Cn1ncc2c3[nH]n(-c4cccc(F)c4)c(=O)c3c(-c3cccc(C#N)c3)nc21` [Example 53], with 30 nM; and `Cn1ncc2c3[nH]n(-c4cccc(F)c4)c(=O)c3c(-c3cccc(C(N)=O)c3)nc21` [Example 54], with 1500 nM; and `Cn1ncc2c3[nH]n(-c4cccc(F)c4)c(=O)c3c(-c3cccc(S(C)(=O)=O)c3)nc21` [Example 55], with 1900 nM. Then `Cn1ncc2c3[nH]n(-c4cccc(F)c4)c(=O)c3c(-c3cccc([S+](C)[O-])c3)nc21` (stereo not shown) [Example 56], with 330 nM; and `Cn1ncc2c3[nH]n(-c4ccc(-c5ccccc5)cc4)c(=O)c3c(-c3cccc(C(F)(F)F)c3)nc21` [Example 57], with 39 nM. Then `Cn1ncc2c3[nH]n(-c4ccc(OCc5ccccc5)cc4)c(=O)c3c(-c3cccc(C(F)(F)F)c3)nc21` [Example 58], with 25 nM. Take `Cn1ncc2c3[nH]n(-c4cccc(OCc5ccccc5)c4)c(=O)c3c(-c3cccc(C(F)(F)F)c3)nc21` [Example 59]: the 50% inhibitory concentration (IC50) was determined as 20 nM. Then `Cn1ncc2c3[nH]n(-c4cccc(F)c4)c(=O)c3c(-c3cccc(C(=O)O)c3)nc21` [Example 60], with 70 nM. In turn, `O=c1c2c(-c3cccc(C(F)(F)F)c3)nc3c(cnn3Cc3ccccc3)c2[nH]n1-c1ccc(F)cc1` [Example 64] displayed a 50% inhibitory concentration (IC50) of 70 nM. Compound `O=c1c2c(-c3cccc(C(F)(F)F)c3)nc3[nH]ncc3c2[nH]n1-c1ccc(F)cc1` [Example 65] yielded an IC50 of 50 nM. Then `O=c1c2c(-c3cccc(C(F)(F)F)c3)nc3c(cnn3CCO)c2[nH]n1-c1ccc(F)cc1` [Example 66], with 800 nM; and `CCn1ncc2c3[nH]n(-c4ccc(F)cc4)c(=O)c3c(-c3cccc(C(F)(F)F)c3)nc21` [Example 67], with 780 nM. Next, `CCCn1ncc2c3[nH]n(-c4ccc(F)cc4)c(=O)c3c(-c3cccc(C(F)(F)F)c3)nc21` [Example 68]: 90 nM. Next, `Cn1ncc2c3[nH]n(-c4cccc(F)c4)c(=O)c3c(-c3cc(Cl)cc(Cl)c3)nc21` [Example 73, 4-(3,5-Dichlorophenyl)-2-(3-fluorophenyl)-6-methyl-1,6-dihydrodypyrazolo[3,4-b:3′,4′-d]pyridin-3(2H)-one]: 40 nM; `Cn1ncc2c3[nH]n(-c4cccc(F)c4)c(=O)c3c(-c3ccsc3)nc21` [Example 74]: 105 nM.
